Laboratory results published in ChEMBL document CHEMBL5131486, “Design, synthesis, biological evaluation and molecular modeling of N-isobutyl-N-((2-(p-tolyloxymethyl)thiazol-4yl)methyl)benzo[d][1,3] dioxole-5-carboxamides as selective butyrylcholinesterase inhibitors” (Bioorg Med Chem Lett, 2022).
Calls of active or inactive are those of the source. The calls are words filed in the database; no cut-off is given here.

How the values were obtained:
Cholinesterase [1] = target: T1, Cholinesterase (Homo sapiens, UniProt P06276); experiment: Inhibition of BuchE (unknown origin)
T1 sequence (P06276 whole entry): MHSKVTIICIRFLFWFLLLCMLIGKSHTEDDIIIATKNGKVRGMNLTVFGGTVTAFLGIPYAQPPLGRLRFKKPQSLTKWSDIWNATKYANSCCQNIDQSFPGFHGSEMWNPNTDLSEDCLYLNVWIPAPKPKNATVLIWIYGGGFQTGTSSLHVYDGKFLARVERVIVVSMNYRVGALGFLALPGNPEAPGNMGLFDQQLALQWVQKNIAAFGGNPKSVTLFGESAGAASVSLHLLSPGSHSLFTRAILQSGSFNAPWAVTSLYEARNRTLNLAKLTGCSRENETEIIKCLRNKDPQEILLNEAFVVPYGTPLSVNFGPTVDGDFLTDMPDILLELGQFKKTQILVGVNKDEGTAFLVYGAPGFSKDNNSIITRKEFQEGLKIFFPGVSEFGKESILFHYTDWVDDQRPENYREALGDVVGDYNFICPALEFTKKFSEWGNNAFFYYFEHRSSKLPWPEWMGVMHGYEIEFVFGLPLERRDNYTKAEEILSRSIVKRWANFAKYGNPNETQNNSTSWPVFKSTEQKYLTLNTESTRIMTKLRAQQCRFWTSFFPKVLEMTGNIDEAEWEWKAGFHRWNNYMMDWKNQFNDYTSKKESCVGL

Cholinesterase [2] = target: T1, Cholinesterase; experiment: Inhibition of BuchE (unknown origin) at 10 uM relative to control
Acetylcholinesterase [3] = target: T2, Acetylcholinesterase (Homo sapiens, UniProt P22303); experiment: Inhibition of AChE (unknown origin) at 10 uM relative to control
T2 sequence (P22303 whole entry): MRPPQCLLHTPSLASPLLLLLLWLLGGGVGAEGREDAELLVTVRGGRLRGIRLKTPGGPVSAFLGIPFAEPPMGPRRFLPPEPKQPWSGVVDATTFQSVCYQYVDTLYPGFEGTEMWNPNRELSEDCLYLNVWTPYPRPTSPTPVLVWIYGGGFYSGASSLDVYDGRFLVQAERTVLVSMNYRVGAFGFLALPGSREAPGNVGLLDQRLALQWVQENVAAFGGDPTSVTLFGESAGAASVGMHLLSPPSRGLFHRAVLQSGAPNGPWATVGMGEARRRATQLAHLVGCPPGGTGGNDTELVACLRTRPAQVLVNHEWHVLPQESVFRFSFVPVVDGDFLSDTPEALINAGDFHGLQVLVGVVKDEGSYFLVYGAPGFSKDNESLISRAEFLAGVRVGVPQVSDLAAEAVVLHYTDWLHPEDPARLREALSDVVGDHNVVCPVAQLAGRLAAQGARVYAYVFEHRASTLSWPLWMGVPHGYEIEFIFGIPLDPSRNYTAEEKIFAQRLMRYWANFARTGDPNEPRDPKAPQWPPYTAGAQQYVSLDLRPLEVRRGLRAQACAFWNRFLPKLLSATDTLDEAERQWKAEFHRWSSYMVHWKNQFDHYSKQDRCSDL

Cholinesterase [4] = target: T1, Cholinesterase; experiment: Competitive inhibition of BuChE (unknown origin) assessed as increase in Km with constant Vmax at 0 to 400 nM using varying concentrations of substrate by Lineweaver-Burk plot analysis; details: dose 0-400 nM
HepG2 [5] = experiment: Cytotoxicity against human HepG2 cells assessed as reduction in cell viability at 50 uM incubated for 24 hrs by MTT assay relative to control; type: toxicity, cell-based; details: hepg2, 24 h
SH-SY5Y [6] = experiment: Cytotoxicity against human SH-SY5Y cells assessed as reduction in cell viability at 50 uM incubated for 24 hrs by MTT assay relative to control; type: toxicity, cell-based
SH-SY5Y [7] = experiment: Cytotoxicity against human SH-SY5Y cells assessed as reduction in cell viability at <20 uM incubated for 24 hrs by MTT assay; type: toxicity, cell-based
HepG2 [8] = experiment: Cytotoxicity against human HepG2 cells assessed as reduction in cell viability at <20 uM incubated for 24 hrs by MTT assay; type: toxicity, cell-based; details: hepg2, 24 h
[9] = Permeability of compound by PAMPA-BBB assay; type: ADME; details: read-out: permeability
Acetylcholinesterase [10] = target: T2, Acetylcholinesterase; experiment: Inhibition of AChE (unknown origin)

Structure (SMILES) | IC50 (Cholinesterase [1]) | inhibition (Cholinesterase [2]) | inhibition (Acetylcholinesterase [3]) | further results
Cc1ccc(OCc2nc(CN(CC(C)C)C(=O)c3cccc(Cl)c3)cs2)cc1 | 860 nM | 97% | -3.62% | –
Cc1ccc(S(=O)(=O)C(=O)N(Cc2csc(COc3ccc(F)cc3)n2)CC(C)C)cc1 | 6850 nM | 64.4% | 14.3% | –
Nc1c2c(nc3ccccc13)CCCC2 | – | 0.07% | – | –
CNC(=O)Oc1ccc2c(c1)[C@]1(C)CCN(C)[C@]1(C)N2C | 16 nM | – | – | –
CCC(=O)N(Cc1csc(COc2ccc(C)cc2)n1)CC(C)C | 8080 nM | 55.3% | -2.4% | –
Cc1ccc(OCc2nc(CN(CC(C)C)C(=O)c3c(F)cccc3F)cs2)cc1 | 4890 nM | 66.4% | 0.18% | –
CCCCCC(=O)N(Cc1csc(COc2ccc(C)cc2)n1)CC(C)C | 1990 nM | 86.1% | 2.55% | –
Cc1ccc(OCc2nc(CN(CC(C)C)C(=O)c3ccc(F)cc3)cs2)cc1 | 2210 nM | 82.2% | – | –
Cc1ccc(OCc2nc(CN(CC(C)C)C(=O)c3ccccc3)cs2)cc1 | 1150 nM | 92% | 0.25% | –
CC(C)CN(Cc1csc(COc2ccc(F)cc2)n1)C(=O)c1ccc2c(c1)OCO2 | 130 nM | 96.4% | -9.02% | inhibition (Cholinesterase [4]): Active; Activity (HepG2 [5]): < 40%; Activity (SH-SY5Y [6]): < 40%; Activity (SH-SY5Y [7]): Non-Toxic; Activity (HepG2 [8]): Non-Toxic; Papp [9]: 4.97 ×10⁻⁶ cm/s
CC(=O)N(Cc1csc(COc2ccc(C)cc2)n1)CC(C)C | 6010 nM | 64.8% | 19.9% | –
CC(C)CN(Cc1csc(COc2ccc(C(F)(F)F)cc2)n1)C(=O)c1ccc2c(c1)OCO2 | 5230 nM | 65.9% | 1.71% | –
COc1cccc(C(=O)N(Cc2csc(COc3ccc(C)cc3)n2)CC(C)C)c1 | 970 nM | 91.4% | 1.46% | –
Cc1ccc(OCc2nc(CN(CC(C)C)C(=O)S(=O)(=O)c3ccc4ccccc4c3)cs2)cc1 | – | 36.5% | 18.7% | –
Cc1ccc(OCc2nc(CN(CC(C)C)C(=O)S(=O)(=O)c3ccccc3)cs2)cc1 | – | 32.9% | 12% | –
Cc1ccc(OCc2nc(CN(CC(C)C)C(=O)c3ccccc3C)cs2)cc1 | 4100 nM | 75.2% | – | –
Cc1ccc(OCc2nc(CN(CC(C)C)C(=O)c3ccccc3Cl)cs2)cc1 | 3940 nM | 72.4% | – | –
Cc1ccc(OCc2nc(CN(CC(C)C)C(=O)S(=O)(=O)c3ccc(C)cc3)cs2)cc1 | – | 38.4% | 10.1% | –
COCc1nc(CN(CC(C)C)C(=O)c2ccc3c(c2)OCO3)cs1 | – | 15.3% | 4.72% | –

Structure (SMILES) | IC50 (Cholinesterase [1]) | inhibition (Cholinesterase [2]) | inhibition (Acetylcholinesterase [3]) | further results
COc1ccccc1C(=O)N(Cc1csc(COc2ccc(C)cc2)n1)CC(C)C | – | 26% | 2.25% | –
CC(C)CN(Cc1csc(COc2ccc(F)cc2)n1)C(=O)S(=O)(=O)c1ccccc1 | 8190 nM | 55.1% | 9.12% | –
Cc1ccc(OCc2nc(CN(CC(C)C)C(=O)S(=O)(=O)c3cccnc3)cs2)cc1 | – | 48.3% | 16.5% | –
CC(C)CN(Cc1csc(COc2ccc(F)cc2)n1)C(=O)S(=O)(=O)c1ccc2ccccc2c1 | – | 40.7% | 20.9% | –
CN1c2ccccc2C(NCCCCCCC(=O)CCCCNc2c3c(nc4ccccc24)CCCC3)c2ccc(Cl)cc2S1(=O)=O (centres undefined) | 4 nM | – | – | IC50 (Acetylcholinesterase [10]): 160 nM
CCCC(=O)N(Cc1csc(COc2ccc(C)cc2)n1)CC(C)C | 4570 nM | 66% | 21.2% | –
COc1ccc(C(=O)N(Cc2csc(COc3ccc(C)cc3)n2)CC(C)C)cc1 | – | 32.8% | 4.91% | –
Cc1ccc(OCc2nc(CN(CC(C)C)C(=O)c3ccc(Cl)cc3)cs2)cc1 | 2230 nM | 65.5% | -6.51% | –
Cc1ccc(OCc2nc(CN(CC(C)C)C(=O)c3ccco3)cs2)cc1 | 1670 nM | 87.8% | 1.61% | –
Cc1ccc(OCc2nc(CN(CC(C)C)C(=O)c3cccs3)cs2)cc1 | 2300 nM | 82% | -0.31% | –
COc1ccc(OCc2nc(CN(CC(C)C)C(=O)c3ccc4c(c3)OCO4)cs2)cc1 | 1800 nM | 77.8% | -5.49% | –
CN(Cc1csc(COc2ccc(F)cc2)n1)C(=O)c1ccc2c(c1)OCO2 | – | 31.9% | 12.8% | –
Cc1ccc(OCc2nc(CN(CC(C)C)C(=O)c3ccc4c(c3)OCO4)cs2)cc1 | 1280 nM | 87.2% | 1.76% | –
Cc1ccc(OCc2nc(CN(CC(C)C)C(=O)c3ccccc3F)cs2)cc1 | 1390 nM | 86.6% | – | –
CC(=O)[C@H]1CC[C@H]2[C@@H]3CCC4=CC(=O)CC[C@]4(C)[C@H]3CC[C@]12C [PROGESTERONE] | – | – | – | Papp [9]: 8.9 ×10⁻⁶ cm/s
Cc1ccc(OCc2nc(CN(CC(C)C)C(=O)c3ccc(C)cc3)cs2)cc1 | 1050 nM | 92.6% | – | –
CC(C)CN(Cc1csc(COc2ccc(Cl)cc2)n1)C(=O)c1ccc2c(c1)OCO2 | 240 nM | 91.2% | -9.46% | –
Cc1ccc(OCc2nc(CN(CC(C)C)C(=O)c3cccc(F)c3)cs2)cc1 | 2430 nM | 78.2% | 0.51% | –
Cc1ccc(OCc2nc(CN(CC(C)C)C(=O)c3cccc(C)c3)cs2)cc1 | 1170 nM | 94.1% | -5.65% | –
